# ChEMBL document CHEMBL1201862, “PubChem BioAssay data set” (2004)
#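 A five-concentration, 48-hour dose response in 96-well plates underlies each endpoint, interpolated linearly between surrounding concentrations. At the GI50, growth is halved.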 Active and inactive are the calls of the source. Rule as the data show it: active = GI50 up to about 1.1 µM and inactive = higher.
# How the values were obtained:
# Test in all cases: DTP human tumour cell line panel, 48 h
# [1] = tested on: 786-0
# [2] = tested on: A549
# [3] = tested on: ACHN
# [4] = tested on: EKVX
# [5] = tested on: COLO 205
# [6] = tested on: UACC-62
# [7] = tested on: NCI/ADR-RES
# [8] = tested on: BT-549
# [9] = tested on: SNB-19
# [10] = tested on: HOP-62
# [11] = tested on: SK-OV-3
# [12] = tested on: HL-60
# [13] = tested on: M14
# [14] = tested on: LOX IMVI
# [15] = tested on: CAKI-1
# [16] = tested on: SF-268
# [17] = tested on: SW-620
# [18] = tested on: SF-295
# [19] = tested on: MDA-MB-435
# [20] = tested on: SNB-75
Compound,GI50 [1],GI50 [2],GI50 [3],GI50 [4],GI50 [5],GI50 [6],GI50 [7],GI50 [8],GI50 [9],GI50 [10],GI50 [11],GI50 [12],GI50 [13],GI50 [14],GI50 [15],GI50 [16],GI50 [17],GI50 [18],GI50 [19],GI50 [20]
COc1cc(Br)cc2cc(-c3cn4ccsc4n3)c(=O)oc12,42.8 µM (inactive),30.3 µM (inactive),34.8 µM (inactive),29.2 µM (inactive),57.3 µM (inactive),22.2 µM (inactive),34.2 µM (inactive),20.3 µM (inactive),30.4 µM (inactive),29.1 µM (inactive),33.7 µM (inactive),29 µM (inactive),27.9 µM (inactive),49.4 µM (inactive),35 µM (inactive),34.3 µM (inactive),36 µM (inactive),26.8 µM (inactive),21.6 µM (inactive),32.1 µM (inactive)
COc1ccc(/C=C2\CCC(CNc3ccc(OC)cc3)C2=O)cc1 (centres undefined),9.51 µM (inactive),36.4 µM (inactive),18.7 µM (inactive),30.3 µM (inactive),15.7 µM (inactive),17.1 µM (inactive),39.4 µM (inactive),13.7 µM (inactive),> 42.6 µM (inactive),36.4 µM (inactive),> 100 µM (inactive),3.09 µM (inactive),16.1 µM (inactive),12.9 µM (inactive),18.7 µM (inactive),14.6 µM (inactive),3.5 µM (inactive),31 µM (inactive),20.8 µM (inactive),31.1 µM (inactive)
CCOC(=O)C12OC(CCC1=O)C(C(=O)OC)=C2C(=O)OC (centres undefined),> 10 µM (inactive),> 10 µM (inactive),> 10 µM (inactive),> 10 µM (inactive),> 10 µM (inactive),> 10 µM (inactive),> 10 µM (inactive),> 10 µM (inactive),> 10 µM (inactive),> 10 µM (inactive),> 10 µM (inactive),> 10 µM (inactive),> 10 µM (inactive),> 10 µM (inactive),> 10 µM (inactive),> 10 µM (inactive),> 10 µM (inactive),> 10 µM (inactive),> 10 µM (inactive),2.26 µM (inactive)
C=CC(C)CCC(C/C=C(\C)CCC=C(C)C)C(=C)CCCC(C)C (centres undefined),> 100 µM (inactive),> 100 µM (inactive),> 100 µM (inactive),> 100 µM (inactive),> 100 µM (inactive),> 100 µM (inactive),> 100 µM (inactive),> 100 µM (inactive),> 100 µM (inactive),> 100 µM (inactive),> 100 µM (inactive),> 100 µM (inactive),> 100 µM (inactive),> 100 µM (inactive),> 100 µM (inactive),> 100 µM (inactive),> 100 µM (inactive),> 100 µM (inactive),> 100 µM (inactive),> 100 µM (inactive)
Fc1cc(C2=C[C@H](c3ccc4c(c3)OCO4)NC(=S)N2)c(Cl)cc1Cl,39.9 µM (inactive),35.6 µM (inactive),28.8 µM (inactive),22.2 µM (inactive),20.9 µM (inactive),35.9 µM (inactive),51.6 µM (inactive),57 µM (inactive),57.4 µM (inactive),39.5 µM (inactive),57 µM (inactive),0.0303 µM (active),40.4 µM (inactive),37.2 µM (inactive),34.8 µM (inactive),45.7 µM (inactive),36 µM (inactive),31.9 µM (inactive),34.6 µM (inactive),20.8 µM (inactive)
C=CC[C@H]1[C@H](O[Si](C)(C)C(C)(C)C)C=CC(=O)[C@@H]1CC(=O)OCC,14.5 µM (inactive),11.7 µM (inactive),14.2 µM (inactive),11.9 µM (inactive),15.3 µM (inactive),11.9 µM (inactive),11 µM (inactive),16.5 µM (inactive),13 µM (inactive),17.5 µM (inactive),18.3 µM (inactive),8.04 µM (inactive),12.7 µM (inactive),17.5 µM (inactive),12.4 µM (inactive),14.4 µM (inactive),15.5 µM (inactive),13.5 µM (inactive),13.4 µM (inactive),16.3 µM (inactive)
Nc1ccc(OCCCc2c(-c3ccccc3)[nH]c(N)nc2=O)cc1,45.2 µM (inactive),,33.9 µM (inactive),0.398 µM (active),26 µM (inactive),16.1 µM (inactive),> 100 µM (inactive),22.5 µM (inactive),67.6 µM (inactive),20.6 µM (inactive),21.4 µM (inactive),86.9 µM (inactive),32.5 µM (inactive),31 µM (inactive),91.6 µM (inactive),> 100 µM (inactive),> 100 µM (inactive),34.8 µM (inactive),49.7 µM (inactive),66.4 µM (inactive)
O=C1c2ccccc2-c2[nH]c3cn[nH]c(=O)c3c21,> 100 µM (inactive),> 100 µM (inactive),85.9 µM (inactive),79.4 µM (inactive),89.5 µM (inactive),45.3 µM (inactive),> 100 µM (inactive),> 100 µM (inactive),> 100 µM (inactive),82 µM (inactive),> 100 µM (inactive),> 100 µM (inactive),> 100 µM (inactive),78.5 µM (inactive),91.6 µM (inactive),99.1 µM (inactive),> 100 µM (inactive),> 100 µM (inactive),48.6 µM (inactive),42.6 µM (inactive)
Cc1c2c(n3c(nc4ccccc43)c1C#N)N(c1ccc(Cl)cc1)CC2,> 100 µM (inactive),> 100 µM (inactive),> 100 µM (inactive),> 100 µM (inactive),> 100 µM (inactive),> 100 µM (inactive),> 100 µM (inactive),> 100 µM (inactive),> 100 µM (inactive),> 100 µM (inactive),96.4 µM (inactive),> 100 µM (inactive),> 100 µM (inactive),> 100 µM (inactive),> 100 µM (inactive),> 100 µM (inactive),> 100 µM (inactive),> 100 µM (inactive),> 100 µM (inactive),> 100 µM (inactive)
COc1ccc(C[C@H]2NC[C@H](O)[C@H]2OC(C)=O)cc1 [ANISOMYCIN],0.018 µM (active),0.0232 µM (active),< 0.0144 µM (active),0.0361 µM (active),< 0.0121 µM (active),0.0362 µM (active),0.0282 µM (active),0.0411 µM (active),< 0.0177 µM (active),< 0.021 µM (active),0.0398 µM (active),0.0104 µM (active),< 0.0136 µM (active),0.0131 µM (active),0.0106 µM (active),0.0361 µM (active),0.0164 µM (active),< 0.0184 µM (active),0.0259 µM (active),< 0.0106 µM (active)
CN1C(c2ccccc2)CC(=NOCc2ccccc2)CC1c1ccccc1 (centres undefined),38.9 µM (inactive),20.7 µM (inactive),46.1 µM (inactive),41.3 µM (inactive),50.6 µM (inactive),52.4 µM (inactive),19.3 µM (inactive),16.9 µM (inactive),44.3 µM (inactive),49.5 µM (inactive),75 µM (inactive),19 µM (inactive),42.5 µM (inactive),14.8 µM (inactive),55 µM (inactive),24.3 µM (inactive),28.1 µM (inactive),44.2 µM (inactive),16.9 µM (inactive),31.4 µM (inactive)
CN(Cc1cc(Br)cc(Br)c1O)Cc1c(O)ccc2ccccc12,16.7 µM (inactive),17.7 µM (inactive),22.7 µM (inactive),16.9 µM (inactive),19.1 µM (inactive),19.7 µM (inactive),34.6 µM (inactive),22.4 µM (inactive),17.2 µM (inactive),18.7 µM (inactive),19.6 µM (inactive),18.3 µM (inactive),17.2 µM (inactive),19.8 µM (inactive),16.1 µM (inactive),24.9 µM (inactive),32 µM (inactive),21.5 µM (inactive),18 µM (inactive),19.1 µM (inactive)
Nc1nc(Cl)c(N)c(NCC2(CO)CC(OCc3ccccc3)C2)n1 (centres undefined),> 100 µM (inactive),> 100 µM (inactive),> 100 µM (inactive),> 100 µM (inactive),> 100 µM (inactive),> 100 µM (inactive),48 µM (inactive),> 100 µM (inactive),> 100 µM (inactive),> 100 µM (inactive),> 100 µM (inactive),> 100 µM (inactive),> 100 µM (inactive),9.35 µM (inactive),> 100 µM (inactive),> 100 µM (inactive),> 100 µM (inactive),> 100 µM (inactive),> 100 µM (inactive),70 µM (inactive)
COc1c(Br)cc2c(c1OC)C(Br)CCC(Br)(Br)C2=O (centres undefined),0.385 µM (active),4.34 µM (inactive),2.29 µM (inactive),3.93 µM (inactive),1.82 µM (inactive),3.18 µM (inactive),0.587 µM (active),0.527 µM (active),4.36 µM (inactive),2.19 µM (inactive),2.9 µM (inactive),0.787 µM (active),0.228 µM (active),0.419 µM (active),2.77 µM (inactive),0.986 µM (active),0.38 µM (active),2.52 µM (inactive),0.434 µM (active),9.02 µM (inactive)
